According to ChEMBL document CHEMBL5715945 (Cancer Biol Ther, 2010):
Active and inactive are the calls of the source. The calls are words filed in the database; no cut-off is given here.

Columns and labels:
[1] = target: Platelet-derived growth factor receptor beta (Homo sapiens) (UniProt P09619); assay: Inhibition of PDGFRb (unknown origin) at 1 uM relative to control; values are per cent of control
4T1 [2] = assay: Antiproliferative activity against mouse 4T1 cells cultured as 3D spheroids assessed as fold reduction in average spheroid size at 0.1 uM measured after 72 hrs by phase contrast microscopic analysis; assay type: functional
[3] = target: Casein kinase I isoform gamma-1 (Homo sapiens) (UniProt Q9HCP0); assay: Inhibition of CK1g1 (unknown origin) at 1 uM relative to control; values are per cent of control
4T1 [4] = assay: Effect on Src phosphorylation at Y416 residue in mouse 4T1 cultured as 3D spheroids at 0.1 to 1 uM incubated for 24 hrs by immunoblotting analysis; assay type: functional, cell-based; settings: dose 0.1-1 µM
4T1 [5] = assay: Inhibition of cell migration in mouse 4T1 cells assessed as wound closure at 1 uM incubated for 22 hrs by wound healing assay (reference value: 89%); assay type: functional; set-up: scale not given: the % may be the effect or the level left
[6] = target: Focal adhesion kinase 1 (Mus musculus) (UniProt P34152); assay: Inhibition of FAK phosphorylation at Tyr397 residue in mouse 4T1 cells harbouring mCherry red fluorescent protein at 0.1 to 1 uM incubated for 1 hr by immunoblotting analysis; assay type: cell-based; settings: dose 0.1-1 µM
Sequence of Focal adhesion kinase 1 (Mus musculus) (P34152 whole entry): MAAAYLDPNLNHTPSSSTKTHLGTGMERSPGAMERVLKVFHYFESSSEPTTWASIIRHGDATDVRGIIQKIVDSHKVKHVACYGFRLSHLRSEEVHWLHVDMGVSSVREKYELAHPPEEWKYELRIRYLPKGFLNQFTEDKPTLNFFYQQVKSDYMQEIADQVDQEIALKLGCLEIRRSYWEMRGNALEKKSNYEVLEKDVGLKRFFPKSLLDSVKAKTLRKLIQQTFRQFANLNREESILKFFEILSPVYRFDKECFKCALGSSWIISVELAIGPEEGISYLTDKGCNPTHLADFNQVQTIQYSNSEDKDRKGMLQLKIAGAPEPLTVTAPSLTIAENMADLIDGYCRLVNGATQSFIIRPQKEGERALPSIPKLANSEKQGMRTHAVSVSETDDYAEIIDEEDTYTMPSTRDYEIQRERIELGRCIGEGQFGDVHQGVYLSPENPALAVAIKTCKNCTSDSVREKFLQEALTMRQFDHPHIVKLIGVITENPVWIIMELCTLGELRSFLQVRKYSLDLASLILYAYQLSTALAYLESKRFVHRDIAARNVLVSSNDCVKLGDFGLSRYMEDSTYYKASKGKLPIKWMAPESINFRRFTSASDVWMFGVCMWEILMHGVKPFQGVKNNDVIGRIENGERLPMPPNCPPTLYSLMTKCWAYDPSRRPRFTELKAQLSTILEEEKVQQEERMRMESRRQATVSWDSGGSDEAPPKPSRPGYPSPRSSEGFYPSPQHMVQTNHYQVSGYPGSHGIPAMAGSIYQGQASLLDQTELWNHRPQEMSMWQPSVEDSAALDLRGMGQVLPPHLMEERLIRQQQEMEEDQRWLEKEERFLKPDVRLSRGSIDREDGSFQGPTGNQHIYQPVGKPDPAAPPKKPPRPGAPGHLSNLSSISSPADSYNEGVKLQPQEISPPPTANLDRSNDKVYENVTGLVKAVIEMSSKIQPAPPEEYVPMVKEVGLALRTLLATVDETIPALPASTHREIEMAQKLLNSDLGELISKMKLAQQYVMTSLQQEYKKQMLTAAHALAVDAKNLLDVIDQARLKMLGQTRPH

4T1 [7] = assay: Inhibition of cell migration in mouse 4T1 cells assessed as maximal efficacy at 0.4 uM incubated for 4 hrs by millicell-motility assay; assay type: functional
[8] = target: High affinity nerve growth factor receptor (Homo sapiens) (UniProt P04629); assay: Inhibition of TrkA (unknown origin) at 1 uM relative to control; values are per cent of control
Sequence of High affinity nerve growth factor receptor (Homo sapiens) (P04629 33-796 limits assumed): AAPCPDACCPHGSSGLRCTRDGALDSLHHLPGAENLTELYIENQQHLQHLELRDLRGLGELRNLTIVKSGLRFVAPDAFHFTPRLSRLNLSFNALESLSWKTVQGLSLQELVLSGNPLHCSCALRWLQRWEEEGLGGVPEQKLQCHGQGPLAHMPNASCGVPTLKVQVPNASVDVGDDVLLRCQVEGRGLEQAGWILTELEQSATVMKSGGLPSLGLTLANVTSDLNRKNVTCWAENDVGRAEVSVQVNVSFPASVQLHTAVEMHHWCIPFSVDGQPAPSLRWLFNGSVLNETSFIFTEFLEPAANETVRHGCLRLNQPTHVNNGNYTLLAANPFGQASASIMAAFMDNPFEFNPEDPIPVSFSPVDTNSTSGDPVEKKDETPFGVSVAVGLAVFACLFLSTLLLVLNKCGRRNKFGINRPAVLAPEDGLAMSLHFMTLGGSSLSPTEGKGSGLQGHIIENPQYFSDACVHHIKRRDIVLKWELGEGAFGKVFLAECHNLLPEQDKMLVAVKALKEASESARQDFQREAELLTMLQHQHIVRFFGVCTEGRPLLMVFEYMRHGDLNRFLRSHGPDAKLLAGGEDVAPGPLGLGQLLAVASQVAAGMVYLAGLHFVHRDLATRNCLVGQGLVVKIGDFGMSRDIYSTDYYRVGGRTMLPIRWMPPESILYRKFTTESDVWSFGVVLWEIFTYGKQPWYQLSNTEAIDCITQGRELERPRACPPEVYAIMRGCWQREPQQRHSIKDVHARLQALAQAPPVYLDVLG

ID8 [9] = assay: Antitumor activity against mouse ID8 suspended cells assessed as reduction in cell viability measured after 72 hrs by trypan blue staining based analysis; assay type: functional; settings: dose 0.1 µM
4T1 [10] = assay: Antiproliferative activity against mouse 4T1 cells cultured as 3D spheroids assessed as maximal effect at 0.2 uM measured after 72 hrs by phase contrast microscopic analysis; assay type: functional, cell-based
[11] = target: Protein kinase C alpha type (Homo sapiens) (UniProt P17252); assay: Inhibition of PKCa (unknown origin) at 1 uM relative to control; values are per cent of control
[12] = target: RAF proto-oncogene serine/threonine-protein kinase (Homo sapiens) (UniProt P04049); assay: Inhibition of c-RAF (unknown origin) at 0.1 uM relative to control; values are per cent of control
4T1 [13] = assay: Antitumor activity against mouse 4T1 cells harbouring mCherry red fluorescent protein implanted in BALB/c mouse assessed as increase in cleaved caspase-3 in tumor at 30 to 100 mg/kg, sc bid measured after 5 days by Hoechst staining based microscopic analysis; assay type: functional, organism-based; settings: dose 30-100 mg/kg, time 5.0 day
Homo sapiens = organism: Homo sapiens; assay: Inhibition of p70S6K (unknown origin) at 1 uM relative to control; values are per cent of control
[14] = target: Platelet-derived growth factor receptor beta (Homo sapiens) (UniProt P09619); assay: Inhibition of PDGFRb (unknown origin) at 0.1 uM relative to control; values are per cent of control
4T1 [15] = assay: Inhibition of colony formation in mouse 4T1 cells assessed as reduction in cell size measured after 10 days by phase contrast microscopy analysis; assay type: functional, cell-based; settings: dose 0.4-1 µM, time 10.0 day
[16] = Toxicity in C57BL6 mouse implanted with mouse ID8 cells assessed as change in body weight at 0.5 mg/ml administered as solution in 5% sucrose measured after 30 days; assay type: cell-based; settings: id8, 720 h, time 30 day
4T1 [17] = assay: Effect on p130Cas phosphorylation in mouse 4T1 cultured as 3D spheroids at 0.1 to 1 uM incubated for 24 hrs by immunoblotting analysis; assay type: functional, cell-based; settings: dose 0.1-1 µM
[18] = target: Serine/threonine-protein kinase Nek6 (Homo sapiens) (UniProt Q9HC98); assay: Inhibition of NEK6 (unknown origin) at 1 uM relative to control; values are per cent of control
Sequence of Serine/threonine-protein kinase Nek6 (Homo sapiens) (Q9HC98 whole entry): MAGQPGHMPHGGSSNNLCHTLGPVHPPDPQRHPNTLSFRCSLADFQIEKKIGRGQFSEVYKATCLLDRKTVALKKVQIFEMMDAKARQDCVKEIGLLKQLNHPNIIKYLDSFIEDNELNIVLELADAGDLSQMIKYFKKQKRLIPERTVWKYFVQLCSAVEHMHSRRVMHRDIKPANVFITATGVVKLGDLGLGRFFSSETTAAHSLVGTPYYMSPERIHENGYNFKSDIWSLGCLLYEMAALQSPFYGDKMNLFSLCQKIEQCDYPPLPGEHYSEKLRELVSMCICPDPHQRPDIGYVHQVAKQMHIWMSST

[19] = target: Focal adhesion kinase 1 (Mus musculus) (UniProt P34152); assay: Inhibition of FAK phosphorylation at Y397 residue in mouse 4T1 adherent cells cultured as 3D spheroids at 0.1 to 1 uM incubated for 24 hrs by immunoblotting analysis; assay type: cell-based; settings: dose 0.1-1 µM
4T1 [20] = assay: Inhibition of colony formation in mouse 4T1 cells assessed as reduction in cell number by measuring minimum inhibitory effect at 0.2 uM measured after 10 days by phase contrast microscopy analysis; assay type: functional, cell-based; settings: time 10.0 day
[21] = target: Serine/threonine-protein kinase Chk1 (Homo sapiens) (UniProt O14757); assay: Inhibition of CHK1 (unknown origin) at 0.1 uM relative to control; values are per cent of control
[22] = target: Ephrin type-A receptor 1 (Homo sapiens) (UniProt P21709); assay: Inhibition of EphA1 (unknown origin) at 1 uM relative to control; values are per cent of control
4T1 [23] = assay: Effect on p130Cas phosphorylation at Tyr410 residue in mouse 4T1 cultured as 3D spheroids at 0.1 uM incubated for 24 hrs by immunoblotting analysis; assay type: functional, cell-based
ID8 [24] = assay: Upregulation of FAK level in mouse ID8 cells harbouring mCherry red fluorescent protein at 0.1 to 1 uM incubated for 1 hr by immunoblotting analysis; assay type: functional, cell-based; settings: dose 0.1-1 µM
[25] = target: Rho-associated protein kinase 1 (Homo sapiens) (UniProt Q13464); assay: Inhibition of ROCK1 (unknown origin) at 1 uM relative to control; values are per cent of control
4T1 [26] = assay: Induction of apoptosis in mouse 4T1 cells assessed as increase in cell membrane blebbing at 0.4 to 1 uM measured after 2 days by phase contrast microscopy analysis; assay type: functional, cell-based; settings: dose 0.4-1 µM, time 2.0 day
[27] = target: Dual specificity mitogen-activated protein kinase kinase 1 (Homo sapiens) (UniProt Q02750); assay: Inhibition of MEK1 (unknown origin) at 1 uM relative to control; values are per cent of control
[28] = target: Tyrosine-protein kinase Lck (Homo sapiens) (UniProt P06239); assay: Inhibition of Lck (unknown origin) at 1 uM relative to control; values are per cent of control
[29] = target: Activated CDC42 kinase 1 (Homo sapiens) (UniProt Q07912); assay: Inhibition of ACK1 (unknown origin) at 0.1 uM relative to control; values are per cent of control
Sequence of Activated CDC42 kinase 1 (Homo sapiens) (Q07912 whole entry, looked up): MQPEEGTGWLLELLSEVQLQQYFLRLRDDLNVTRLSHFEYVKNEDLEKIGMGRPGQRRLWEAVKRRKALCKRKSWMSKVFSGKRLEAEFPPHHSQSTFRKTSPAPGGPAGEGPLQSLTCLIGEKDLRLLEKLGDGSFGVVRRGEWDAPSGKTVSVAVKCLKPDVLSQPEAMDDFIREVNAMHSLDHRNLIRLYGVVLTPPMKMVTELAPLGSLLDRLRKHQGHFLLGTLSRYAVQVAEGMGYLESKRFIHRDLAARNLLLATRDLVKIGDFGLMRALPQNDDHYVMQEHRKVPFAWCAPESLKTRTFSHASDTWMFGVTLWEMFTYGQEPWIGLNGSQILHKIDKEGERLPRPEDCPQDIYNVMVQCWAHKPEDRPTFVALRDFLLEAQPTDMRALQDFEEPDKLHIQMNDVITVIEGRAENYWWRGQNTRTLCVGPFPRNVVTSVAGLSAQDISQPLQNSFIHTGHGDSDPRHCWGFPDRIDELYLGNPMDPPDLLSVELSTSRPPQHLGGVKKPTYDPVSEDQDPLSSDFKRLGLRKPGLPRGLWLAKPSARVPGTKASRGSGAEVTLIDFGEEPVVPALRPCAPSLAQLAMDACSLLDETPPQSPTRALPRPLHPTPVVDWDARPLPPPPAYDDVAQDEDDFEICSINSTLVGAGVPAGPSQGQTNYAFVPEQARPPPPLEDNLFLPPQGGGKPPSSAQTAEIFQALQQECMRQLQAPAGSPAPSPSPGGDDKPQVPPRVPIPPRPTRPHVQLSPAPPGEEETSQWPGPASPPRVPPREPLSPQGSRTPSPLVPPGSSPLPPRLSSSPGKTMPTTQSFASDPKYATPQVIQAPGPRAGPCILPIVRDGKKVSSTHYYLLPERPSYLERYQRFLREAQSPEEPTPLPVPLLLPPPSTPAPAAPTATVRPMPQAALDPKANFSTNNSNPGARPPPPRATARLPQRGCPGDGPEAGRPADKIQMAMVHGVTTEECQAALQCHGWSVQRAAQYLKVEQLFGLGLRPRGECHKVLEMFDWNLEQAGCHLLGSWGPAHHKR

ID8 [30] = assay: Antitumor activity against mouse ID8 cells implanted in C57BL6 mouse assessed as inhibition of FAK phosphorylation at Y397 residue at 0.5 mg/ml administered as solution in 5% sucrose measured after 30 days by immunoblotting analysis; assay type: functional, cell-based; settings: time 30.0 day
[31] = target: Proto-oncogene tyrosine-protein kinase Src (Homo sapiens) (UniProt P12931); assay: Inhibition of c-SRC (unknown origin) at 1 uM relative to control; values are per cent of control

Sequence of Platelet-derived growth factor receptor beta (Homo sapiens) (P09619 whole entry): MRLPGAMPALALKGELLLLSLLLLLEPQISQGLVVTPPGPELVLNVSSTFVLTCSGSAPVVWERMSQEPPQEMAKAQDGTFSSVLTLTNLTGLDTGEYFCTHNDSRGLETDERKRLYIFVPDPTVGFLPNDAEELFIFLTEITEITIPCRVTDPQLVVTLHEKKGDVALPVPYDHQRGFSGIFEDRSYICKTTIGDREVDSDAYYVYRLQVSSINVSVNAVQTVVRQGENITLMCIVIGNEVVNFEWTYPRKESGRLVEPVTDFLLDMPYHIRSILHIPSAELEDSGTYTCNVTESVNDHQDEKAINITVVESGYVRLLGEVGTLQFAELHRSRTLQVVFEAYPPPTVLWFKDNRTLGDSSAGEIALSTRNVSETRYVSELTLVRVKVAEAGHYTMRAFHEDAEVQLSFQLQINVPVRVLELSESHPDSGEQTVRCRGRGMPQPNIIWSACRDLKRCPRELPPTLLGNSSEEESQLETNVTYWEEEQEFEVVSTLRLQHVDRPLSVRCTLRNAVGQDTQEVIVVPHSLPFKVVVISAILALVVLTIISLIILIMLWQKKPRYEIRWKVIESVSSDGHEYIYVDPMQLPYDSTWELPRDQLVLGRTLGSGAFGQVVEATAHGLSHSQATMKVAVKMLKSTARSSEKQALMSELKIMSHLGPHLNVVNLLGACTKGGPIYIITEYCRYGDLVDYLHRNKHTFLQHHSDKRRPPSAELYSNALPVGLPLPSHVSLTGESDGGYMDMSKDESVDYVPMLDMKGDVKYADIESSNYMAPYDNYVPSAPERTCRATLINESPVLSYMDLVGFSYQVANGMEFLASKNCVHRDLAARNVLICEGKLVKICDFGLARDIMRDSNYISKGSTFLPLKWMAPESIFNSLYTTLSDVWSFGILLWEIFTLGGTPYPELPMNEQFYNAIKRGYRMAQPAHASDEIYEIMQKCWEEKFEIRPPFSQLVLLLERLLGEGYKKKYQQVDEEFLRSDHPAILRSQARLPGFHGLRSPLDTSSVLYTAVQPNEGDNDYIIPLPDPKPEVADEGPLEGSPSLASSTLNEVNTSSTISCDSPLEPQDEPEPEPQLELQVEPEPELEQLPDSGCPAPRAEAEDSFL

With `CNC(=O)c1ccccc1Nc1cc(Nc2ccc(N3CCOCC3)cc2OC)ncc1C(F)(F)F` [VS-4718] the residual activity [1] was 105%, the “fold change (FC)” value (4T1 [2]) was roughly 3 and the residual activity [3] was 107%. For the same molecule, the Activity (4T1 [4]) was “inactive”, the Activity (4T1 [5]) was 40% and the inhibition [6] was “Active”. For the same molecule, the Imax (4T1 [7]) was roughly 60%, the residual activity [8] was 27% and the Activity (ID8 [9]) was “Dose-Dependent Effect”. For the same molecule, the Activity (4T1 [10]) was “Active”, the residual activity [11] was 96% and the residual activity [12] was 142%. For the same molecule, the Activity (4T1 [13]) was “Active”, the residual activity (Homo sapiens) was 97% and the residual activity [14] was 98%. The inhibition (4T1 [15]) was “Dose-Dependent Effect”, the Activity [16] was “Non-Toxic” and the Activity (4T1 [17]) was “inactive”. The residual activity [18] was 107%, the inhibition [19] was “Active” and the inhibition (4T1 [20]) was “Active”. For the same molecule, the residual activity [21] was 109%, the residual activity [22] was 108% and the Activity (4T1 [23]) was “Active”. The Activity (ID8 [24]) was “Active”, the residual activity [25] was 90% and the Activity (4T1 [26]) was “Active”. For the same molecule, the residual activity [27] was 79%, the residual activity [28] was 32% and the residual activity [29] was 56%. For the same molecule, the Activity (ID8 [30]) was “Active” and the residual activity [31] was 72%.
